Measurements as given in US20260297094A1, “Tetracyclic Compounds as SMARCA2 and/or SMARCA4 Degraders” (Aurigene Oncology Limited, priority 2023, published 2026).
Where a name gives a salt, the structure may show the parent alone.

Key:
Assay type in all cases: cell-based
SK-MEL-5 cells = experiment: Anti proliferative activity in SK-MEL-5 cells by Cell Titer Glo (Promega) assay; settings: Homo sapiens, retreatment on Day 4, terminated on day 8, CellTiter-Glo
Description: Example-P1: Determination of Anti Proliferative Activity of Compounds in Cell Lines SK-MEL-5 by Cell Titer Glo® (Promega) Assay
Cells were seeded into 96-well plates and the plate was incubated in 37 degrees incubator overnight. The next day, compounds were diluted 3-fold to cover 9-point concentration range in DMSO. Intermediate plate dilution was prepared in media followed with compound treatment in cells. Retreatment of cells with compound dilutions was performed on Day 4 and assay was terminated on day 8 for SK-MEL-5 cells using CellTiter-Glo and the plate was kept on orbital shaker for 20 minutes at RT. Assay was terminated on day 6 for RERF-LC-A1 without a compound retreatment. Luminescence signal was recorded on VICTOR^3 instrument. Percent inhibition of proliferation was calculated at each concentration and plotted against the compound concentration. EC50 value was calculated using GraphPad® software.

MV-4-11 cells = experiment: Anti proliferative activity in MV-4-11 cells by Cell Titer Glo (Promega) assay; settings: Homo sapiens, MV4-11, 72 h, 3 days, CellTiter-Glo
Description: Example-P2: Determination of Anti Proliferative Activity of Compounds in Cell Lines MV-4-11 by Cell Titer Glo® (Promega) Assay
MV-4-11 (CRL-9591™) cells were seeded in 96 well plate flat black clear bottom plates (Corning, Cat. No 3904) using complete DMEM Medium. Next day, selected compounds of the present invention were added to cells from 10 mM stocks made in DMSO (Sigma Cat no. D2650). Each concentration of compound was tested in triplicate with DMSO concentration at a final percentage not exceeding 0.3 in the cells. After the incubation of MV-4-11 cells with compound for 3 days; assay was terminated using 100 μl of CellTiter Glo® reagent (Promega, Cat. no G7572). CellTiter-Glo® Luminescent reagent determines the number of viable cells based on quantitation of ATP present which is an indicator of cell number and metabolic activity. Luminescence readings were taken in Victor-5 instrument. Percent inhibition of proliferation was calculated using formula, % inhibition=100−(luminescence value of test/luminescence value of DMSO control)*100. DMSO control (0%)=Cells in complete media with DMSO; blank=Media alone containing DMSO. EC50 was calculated using graph pad prism software.

SMARCA4 = biological target: T1, SMARCA4 (Homo sapiens, UniProt P51532); experiment: SMARCA4 degradation in MV-4-11 cells by Western blot; settings: MV4-11, at 100 nM, 16 hours, vs DMSO, read-out: Percent degradation SMARCA4
T1 construct: endogenous in cells; host or cells: MV-4-11 (CRL-9591)
T1 sequence (P51532 whole entry): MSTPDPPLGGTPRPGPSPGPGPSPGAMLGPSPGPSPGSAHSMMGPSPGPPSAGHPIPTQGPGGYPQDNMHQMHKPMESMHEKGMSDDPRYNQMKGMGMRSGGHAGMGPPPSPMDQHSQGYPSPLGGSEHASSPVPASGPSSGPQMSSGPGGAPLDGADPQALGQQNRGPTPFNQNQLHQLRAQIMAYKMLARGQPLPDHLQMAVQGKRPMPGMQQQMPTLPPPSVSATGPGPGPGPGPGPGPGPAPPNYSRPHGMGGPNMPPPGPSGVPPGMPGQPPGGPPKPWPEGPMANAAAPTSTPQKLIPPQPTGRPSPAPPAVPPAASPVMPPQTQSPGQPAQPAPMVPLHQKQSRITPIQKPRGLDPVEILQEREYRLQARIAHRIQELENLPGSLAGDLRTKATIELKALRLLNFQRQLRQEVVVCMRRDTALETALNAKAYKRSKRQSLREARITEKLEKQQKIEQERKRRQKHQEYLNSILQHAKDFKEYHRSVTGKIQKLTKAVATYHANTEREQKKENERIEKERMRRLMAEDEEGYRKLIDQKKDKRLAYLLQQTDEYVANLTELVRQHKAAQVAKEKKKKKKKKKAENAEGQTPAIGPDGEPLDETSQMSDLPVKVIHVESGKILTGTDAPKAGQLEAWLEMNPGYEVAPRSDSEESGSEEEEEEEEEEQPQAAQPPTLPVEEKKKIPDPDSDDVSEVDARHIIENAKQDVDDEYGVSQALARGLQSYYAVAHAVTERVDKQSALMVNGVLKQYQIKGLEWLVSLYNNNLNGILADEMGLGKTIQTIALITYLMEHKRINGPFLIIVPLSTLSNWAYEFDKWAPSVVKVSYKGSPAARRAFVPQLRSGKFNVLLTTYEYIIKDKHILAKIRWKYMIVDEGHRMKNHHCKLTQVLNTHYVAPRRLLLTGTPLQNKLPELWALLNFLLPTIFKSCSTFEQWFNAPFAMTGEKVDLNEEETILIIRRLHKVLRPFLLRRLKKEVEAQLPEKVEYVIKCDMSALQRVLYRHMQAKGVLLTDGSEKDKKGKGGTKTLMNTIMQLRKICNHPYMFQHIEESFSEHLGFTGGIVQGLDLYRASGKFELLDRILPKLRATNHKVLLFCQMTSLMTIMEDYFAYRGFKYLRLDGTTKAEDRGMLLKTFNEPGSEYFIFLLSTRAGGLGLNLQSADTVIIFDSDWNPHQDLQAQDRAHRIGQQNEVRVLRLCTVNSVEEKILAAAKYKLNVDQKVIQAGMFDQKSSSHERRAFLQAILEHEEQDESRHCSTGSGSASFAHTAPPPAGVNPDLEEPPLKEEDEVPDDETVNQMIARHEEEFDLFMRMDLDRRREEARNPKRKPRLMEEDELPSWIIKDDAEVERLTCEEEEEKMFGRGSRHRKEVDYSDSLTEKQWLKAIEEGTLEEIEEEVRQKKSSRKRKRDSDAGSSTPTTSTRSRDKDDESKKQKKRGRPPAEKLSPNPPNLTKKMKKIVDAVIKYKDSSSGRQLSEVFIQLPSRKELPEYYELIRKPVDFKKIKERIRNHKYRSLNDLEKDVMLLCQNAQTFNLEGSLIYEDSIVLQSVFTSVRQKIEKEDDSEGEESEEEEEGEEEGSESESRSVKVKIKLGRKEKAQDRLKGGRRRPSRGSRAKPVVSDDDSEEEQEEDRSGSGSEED
Description: (§1) Example-P3: Determination of SMARCA2 and SMARCA4 Degradation in MV-4-11 Cells by Western Blot
(§2) MV-4-11 (CRL-9591™) cells were plated in 6 well plates using complete Iscove's Modified Dulbecco's Medium. On the third day, compounds of present invention were added to cells from 10 mM stocks made in DMSO (Sigma Cat no. D2650). Each concentration of compound was tested with DMSO not exceeding final percentage of 0.1 in the cells. Cells were incubated with the compound for 16 hours followed by harvesting with 1×RIPA lysis buffer (Thermo Fischer, catalogue number #89900) containing protease inhibitor cocktail (Sigma catalogue number #P-8340). Equal amount of protein was loaded on SDS PAGE gel for electrophoresis. Western blot was carried out for detection of either SMARCA2 (Cell signalling technologies, catalogue number #11966) or SMARCA4 antibody (Cell signalling technologies, catalogue number #52251). Beta-Tubulin antibody (Cell signalling technologies, catalogue number #86298) was used as loading control. Percentage of SMARCA2 or SMARCA4 degradation was calculated using formula % Degradation=100−(normalized band intensity in treated sample/normalized band intensity in DMSO sample)*100. Here, “ND” refers to Not determined.

SMARCA2 = biological target: T2, SMARCA2 (Homo sapiens, UniProt P51531); experiment: SMARCA2 degradation in MV-4-11 cells by Western blot; settings: MV4-11, 16 h, at 100 nM, vs DMSO, read-out: Percent degradation SMARCA2
T2 construct: endogenous in cells; host or cells: MV-4-11 (CRL-9591)
T2 sequence (P51531 whole entry): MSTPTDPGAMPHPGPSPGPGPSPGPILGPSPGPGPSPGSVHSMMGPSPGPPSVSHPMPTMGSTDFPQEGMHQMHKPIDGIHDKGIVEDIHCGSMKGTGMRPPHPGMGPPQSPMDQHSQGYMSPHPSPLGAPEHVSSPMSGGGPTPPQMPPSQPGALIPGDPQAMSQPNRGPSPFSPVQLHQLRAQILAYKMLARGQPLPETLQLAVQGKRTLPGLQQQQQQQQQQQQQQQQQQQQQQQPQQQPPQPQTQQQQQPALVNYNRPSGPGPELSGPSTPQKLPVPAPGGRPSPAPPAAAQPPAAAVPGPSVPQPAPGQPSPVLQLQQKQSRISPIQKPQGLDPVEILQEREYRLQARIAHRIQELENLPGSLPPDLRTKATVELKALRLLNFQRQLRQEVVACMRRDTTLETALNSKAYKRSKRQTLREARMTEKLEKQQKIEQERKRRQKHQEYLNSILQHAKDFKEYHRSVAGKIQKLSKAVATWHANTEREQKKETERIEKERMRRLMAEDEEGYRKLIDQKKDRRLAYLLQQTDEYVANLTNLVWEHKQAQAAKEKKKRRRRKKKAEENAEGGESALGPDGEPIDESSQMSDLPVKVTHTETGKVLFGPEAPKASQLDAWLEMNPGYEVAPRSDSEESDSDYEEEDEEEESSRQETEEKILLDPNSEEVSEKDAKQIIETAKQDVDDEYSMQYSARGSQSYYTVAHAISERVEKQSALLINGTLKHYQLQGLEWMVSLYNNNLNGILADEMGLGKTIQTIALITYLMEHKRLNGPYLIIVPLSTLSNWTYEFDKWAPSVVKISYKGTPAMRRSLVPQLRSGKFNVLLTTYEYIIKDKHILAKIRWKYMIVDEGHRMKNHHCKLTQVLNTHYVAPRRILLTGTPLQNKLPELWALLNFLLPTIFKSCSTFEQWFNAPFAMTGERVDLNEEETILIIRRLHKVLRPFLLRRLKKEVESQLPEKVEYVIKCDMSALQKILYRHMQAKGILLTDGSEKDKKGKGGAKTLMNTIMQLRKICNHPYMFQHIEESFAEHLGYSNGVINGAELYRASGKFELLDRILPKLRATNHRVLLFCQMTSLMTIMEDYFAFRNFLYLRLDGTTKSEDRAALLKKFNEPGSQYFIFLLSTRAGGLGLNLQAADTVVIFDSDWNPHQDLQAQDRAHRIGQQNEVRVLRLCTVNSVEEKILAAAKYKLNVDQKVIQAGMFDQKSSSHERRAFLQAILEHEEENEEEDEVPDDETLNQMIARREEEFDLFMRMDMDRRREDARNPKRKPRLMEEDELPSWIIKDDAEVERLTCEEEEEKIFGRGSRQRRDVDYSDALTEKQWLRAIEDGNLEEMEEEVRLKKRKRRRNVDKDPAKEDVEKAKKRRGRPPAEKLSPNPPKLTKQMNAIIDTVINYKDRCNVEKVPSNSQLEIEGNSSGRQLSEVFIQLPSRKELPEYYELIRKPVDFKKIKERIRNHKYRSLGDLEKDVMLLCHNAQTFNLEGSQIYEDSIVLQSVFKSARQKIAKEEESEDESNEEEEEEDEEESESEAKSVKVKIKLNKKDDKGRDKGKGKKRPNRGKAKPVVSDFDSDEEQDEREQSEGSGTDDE
Description: as §1, §2

Structure (SMILES) | EC50 (SK-MEL-5 cells) [nM] | EC50 (MV-4-11 cells) [nM] | inhibition at 0.1 µM (SMARCA4) [%] | inhibition at 0.1 µM (SMARCA2) [%]
Nc1cccc2c1c(=O)nc1n(C3CCCC3)c3cc(N4CCC(N5CCN(c6ccc(C7CCC(=O)NC7=O)cc6)CC5)CC4)ccc3n21 (centres unmarked) [Compound 26, 3-(4-(4-(1-(4-amino-7-cyclopentyl-5-oxo-5,7-dihydrobenzo[4,5]imidazo[1,2-a]quinazolin-9-yl)piperidin-4-yl)piperazin-1-yl)phenyl)piperidine-2,6-dione-HCl salt] | 10 to 100 | > 100 | 33 | 68
Cn1c2cc(N3CCC(N4CCC(c5ccc(C6CCC(=O)NC6=O)cc5)CC4)CC3)ccc2n2c3cccc(N)c3c(=O)nc12 (centres unmarked) [Compound 20, 3-(4-(1′-(4-amino-7-methyl-5-oxo-5,7-dihydrobenzo[4,5]imidazo[1,2-a]quinazolin-9-yl)-[1,4′-bipiperidin]-4-yl)phenyl)piperidine-2,6-dione] | 10 to 100 | > 100 | 81 | 80
Cn1c2cc(N3CCC(N4CCC(c5ccc(NC6CCC(=O)NC6=O)cc5F)CC4)CC3)ccc2n2c3cccc(Cl)c3c(=O)nc12 (centres unmarked) [Compound 36, 3-((4-(1′-(4-chloro-7-methyl-5-oxo-5,7-dihydrobenzo[4,5]imidazo[1,2-a]quinazolin-9-yl)-[1,4′-bipiperidin]-4-yl)-3-fluorophenyl)amino)piperidine-2,6-dione] | < 10 | > 100 | 97 | 99
O=C1CCC(N2Cc3cc(N4CCN(C5CCN(c6ccc7c(c6)n(C6CCCC6)c6nc(=O)c8c(Cl)cccc8n76)CC5)CC4)ccc3C2=O)C(=O)N1 (centres unmarked) [Compound 30, 3-(5-(4-(1-(4-chloro-7-cyclopentyl-5-oxo-5,7-dihydrobenzo[4,5]imidazo[1,2-a]quinazolin-9-yl)piperidin-4-yl)piperazin-1-yl)-1-oxoisoindolin-2-yl)piperidine-2,6-dione-HCl salt] | < 10 | > 100 | 64 | 90
O=C1CCC(N2Cc3cc(C4CCN(C5CCN(C6CCN(c7ccc8c(c7)n(C7CCCC7)c7nc(=O)c9c(Br)cccc9n87)CC6)CC5)CC4)ccc3C2=O)C(=O)N1 (centres unmarked) [Compound 7, 3-(5-(1″-(4-bromo-7-cyclopentyl-5-oxo-5,7-dihydrobenzo[4,5]imidazo[1,2-a]quinazolin-9-yl)-[1,4′:1′,4″-terpiperidin]-4-yl)-1-oxoisoindolin-2-yl)piperidine-2,6-dione] | < 10 | < 10 | 99 | 99
Cn1c2cc(N3CCC(N4CCC(c5ccc(C6CCC(=O)NC6=O)cc5)CC4)CC3)ccc2n2c3cccc(Cl)c3c(=O)nc12 (centres unmarked) [Compound 18, 3-(4-(1′-(4-chloro-7-methyl-5-oxo-5,7-dihydrobenzo[4,5]imidazo[1,2-a]quinazolin-9-yl)-[1,4′-bipiperidin]-4-yl)phenyl)piperidine-2,6-dione] | < 10 | < 10 | 95 | 98
Cn1c2cc(N3CCC(N4CCC(c5ccc6c(c5)CN(C5CCC(=O)NC5=O)C6=O)CC4)CC3)ccc2n2c3cccc(N)c3c(=O)nc12 (centres unmarked) [Compound 15, 3-(5-(1′-(4-amino-7-methyl-5-oxo-5,7-dihydrobenzo[4,5]imidazo[1,2-a]quinazolin-9-yl)-[1,4′-bipiperidin]-4-yl)-1-oxoisoindolin-2-yl)piperidine-2,6-dione-HCl salt] | < 10 | < 10 | 95 | 96
Cn1c2cc(N3CCC(N4CCC(c5ccc6c(c5)CN(C5CCC(=O)NC5=O)C6=O)CC4)CC3)ccc2n2c3cccc(Br)c3c(=O)nc12 (centres unmarked) [Compound 14, 3-(5-(1′-(4-bromo-7-methyl-5-oxo-5,7-dihydrobenzo[4,5]imidazo[1,2-a]quinazolin-9-yl)-[1,4′-bipiperidin]-4-yl)-1-oxoisoindolin-2-yl)piperidine-2,6-dione] | < 10 | < 10 | 94 | 100
Cn1c2cc(N3CCC(N4CCN(c5ccc(NC6CCC(=O)NC6=O)cc5F)CC4)CC3)ccc2n2c3cccc(N)c3c(=O)nc12 (centres unmarked) [Compound 40, 3-((4-(4-(1-(4-amino-7-methyl-5-oxo-5,7-dihydrobenzo[4,5]imidazo[1,2-a]quinazolin-9-yl)piperidin-4-yl)piperazin-1-yl)-3-fluorophenyl)amino)piperidine-2,6-dione] | > 100 | > 100 | – | 48

The next lines start with the values.

EC50 (SK-MEL-5 cells) [nM] | EC50 (MV-4-11 cells) [nM] | inhibition at 0.1 µM (SMARCA4) [%] | inhibition at 0.1 µM (SMARCA2) [%] | Structure (SMILES)
< 10 | > 100 | 90 | 96 | O=C1CCC(c2ccc(N3CCN(C4CCN(c5ccc6c(c5)n(C5CCCC5)c5nc(=O)c7c(Br)cccc7n65)CC4)CC3)cc2)C(=O)N1 (centres unmarked) [Compound 6, 3-(4-(4-(1-(4-bromo-7-cyclopentyl-5-oxo-5,7-dihydrobenzo[4,5]imidazo[1,2-a]quinazolin-9-yl)piperidin-4-yl)piperazin-1-yl)phenyl)piperidine-2,6-dione]
< 10 | < 10 | 100 | 100 | O=C1CCC(Oc2ccc(C3CCN(C4CCN(c5ccc6c(c5)n(C5CCCC5)c5nc(=O)c7c(Br)cccc7n65)CC4)CC3)cc2)C(=O)N1 (centres unmarked) [Compound 2, 3-(4-(1′-(4-bromo-7-cyclopentyl-5-oxo-5,7-dihydrobenzo[4,5]imidazo[1,2-a]quinazolin-9-yl)-[1,4′-bipiperidin]-4-yl)phenoxy)piperidine-2,6-dione-TFA salt]
< 10 | < 10 | 98 | 99 | O=C1CCC(Nc2ccc(C3CCN(C4CCN(c5ccc6c(c5)n(C5CCCC5)c5nc(=O)c7c(Cl)cccc7n65)CC4)CC3)c(F)c2)C(=O)N1 (centres unmarked) [Compound 23, 3-((4-(1′-(4-chloro-7-cyclopentyl-5-oxo-5,7-dihydrobenzo[4,5]imidazo[1,2-a]quinazolin-9-yl)-[1,4′-bipiperidin]-4-yl)-3-fluorophenyl)amino)piperidine-2,6-dione-HCl salt]
< 10 | < 10 | 56 | 89 | O=C1CCC(c2ccc(C3CCN(C4CCN(c5ccc6c(c5)n(C5CCCC5)c5nc(=O)c7c(Cl)cccc7n65)CC4)CC3)cc2)C(=O)N1 (centres unmarked) [Compound 22, 3-(4-(1′-(4-chloro-7-cyclopentyl-5-oxo-5,7-dihydrobenzo[4,5]imidazo[1,2-a]quinazolin-9-yl)-[1,4′-bipiperidin]-4-yl)phenyl)piperidine-2,6-dione-HCl salt]
< 10 | < 10 | 99 | 90 | O=C1CCC(N2Cc3cc(C4CCN(C5CCN(c6ccc7c(c6)n(C6CCCC6)c6nc(=O)c8c(Cl)cccc8n76)CC5)CC4)ccc3C2=O)C(=O)N1 (centres unmarked) [Compound 9, 3-(5-(1′-(4-chloro-7-cyclopentyl-5-oxo-5,7-dihydrobenzo[4,5]imidazo[1,2-a]quinazolin-9-yl)-[1,4′-bipiperidin]-4-yl)-1-oxoisoindolin-2-yl)piperidine-2,6-dione]
> 100 | > 100 | 38 | 59 | Cn1c2cc(N3CCC(N4CCN(c5ccc(C6CCC(=O)NC6=O)cc5)CC4)CC3)ccc2n2c3cccc(N)c3c(=O)nc12 (centres unmarked) [Compound 32, 3-(4-(4-(1-(4-amino-7-methyl-5-oxo-5,7-dihydrobenzo[4,5]imidazo[1,2-a]quinazolin-9-yl)piperidin-4-yl)piperazin-1-yl)phenyl)piperidine-2,6-dione-HCl salt]
